Each structure is given as a SMILES string.

These results are taken from PMC7116141 (Journal of the American Chemical Society, 2006).

For the assay, the target named is T1, human OGA (hOGA, O-GlcNAcase) (Homo sapiens, UniProt O60502).
T1 sequence (O60502 1-916): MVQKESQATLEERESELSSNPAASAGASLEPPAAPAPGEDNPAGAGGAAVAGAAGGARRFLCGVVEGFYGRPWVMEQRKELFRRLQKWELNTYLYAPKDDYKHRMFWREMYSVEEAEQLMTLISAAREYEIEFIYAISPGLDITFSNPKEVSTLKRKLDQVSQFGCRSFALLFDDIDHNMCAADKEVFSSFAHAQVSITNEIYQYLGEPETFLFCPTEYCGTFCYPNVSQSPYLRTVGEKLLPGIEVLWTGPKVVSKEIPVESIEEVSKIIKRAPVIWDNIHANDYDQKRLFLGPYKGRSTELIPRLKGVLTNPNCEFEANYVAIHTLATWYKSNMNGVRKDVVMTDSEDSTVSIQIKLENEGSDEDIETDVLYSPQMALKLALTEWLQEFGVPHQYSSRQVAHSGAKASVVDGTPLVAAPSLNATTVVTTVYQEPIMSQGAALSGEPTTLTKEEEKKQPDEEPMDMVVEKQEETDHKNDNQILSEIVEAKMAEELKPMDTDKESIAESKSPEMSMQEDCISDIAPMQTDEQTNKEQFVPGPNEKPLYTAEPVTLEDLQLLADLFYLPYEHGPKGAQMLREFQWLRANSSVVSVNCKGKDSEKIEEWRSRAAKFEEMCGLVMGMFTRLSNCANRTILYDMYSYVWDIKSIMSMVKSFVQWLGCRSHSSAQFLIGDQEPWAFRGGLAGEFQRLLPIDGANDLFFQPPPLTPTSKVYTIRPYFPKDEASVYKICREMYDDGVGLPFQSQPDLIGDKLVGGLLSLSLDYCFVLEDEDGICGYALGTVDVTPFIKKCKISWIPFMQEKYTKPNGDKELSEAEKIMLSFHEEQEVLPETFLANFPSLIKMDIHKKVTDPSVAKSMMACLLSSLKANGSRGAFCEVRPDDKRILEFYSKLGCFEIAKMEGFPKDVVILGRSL
Put plainly: anti-O-GlcNAc immunoblot of treated HEK […] cells. The assay is classed as cell-based.

For `CC(C)C(=O)N[C@H]1c2nc(CCc3ccccc3)cn2[C@H](CO)[C@@H](O)[C@@H]1O` [compound 1, GlcNAcstatin], the “anti-O-GlcNAc immunoblot of treated HEK 293 cells (qualitative)” value is recorded as “is active against human OGA (hOGA) in human cell lines”.
